Experimental data from patent US20090215894A1, “INHIBITION OF PHOSPHATASE ACTIVITY OF SOLUBLE EPOXIDE HYDROLASE AMINO TERMINUS AND USES THEREOF” (REGENTS OF THE UNIVERSITY OF CALIFORNIA, priority 2005, published 2009).
Structures can show the parent of a compound that is named as a salt. Where two headings read alike, the source gives them in different places. Each block holds one molecule with its values, some of them ahead of it.

Assays:
Type in all cases: biochemical
Nterm-phos [1] = target: T1, Nterm-phos (Homo sapiens, UniProt P34913); test: Specific activity of Nterm-phos for lipid-phosphates (phosphoric acid formed); settings: substrate hydrolysis, 30° C., average ± SD of three experiments
T1 construct: use of a truncated enzyme from crude extract versus purified full-length human sEH; made in house; host or cells: baculovirus expression system (insect cells)
T1 sequence (P34913 1-555): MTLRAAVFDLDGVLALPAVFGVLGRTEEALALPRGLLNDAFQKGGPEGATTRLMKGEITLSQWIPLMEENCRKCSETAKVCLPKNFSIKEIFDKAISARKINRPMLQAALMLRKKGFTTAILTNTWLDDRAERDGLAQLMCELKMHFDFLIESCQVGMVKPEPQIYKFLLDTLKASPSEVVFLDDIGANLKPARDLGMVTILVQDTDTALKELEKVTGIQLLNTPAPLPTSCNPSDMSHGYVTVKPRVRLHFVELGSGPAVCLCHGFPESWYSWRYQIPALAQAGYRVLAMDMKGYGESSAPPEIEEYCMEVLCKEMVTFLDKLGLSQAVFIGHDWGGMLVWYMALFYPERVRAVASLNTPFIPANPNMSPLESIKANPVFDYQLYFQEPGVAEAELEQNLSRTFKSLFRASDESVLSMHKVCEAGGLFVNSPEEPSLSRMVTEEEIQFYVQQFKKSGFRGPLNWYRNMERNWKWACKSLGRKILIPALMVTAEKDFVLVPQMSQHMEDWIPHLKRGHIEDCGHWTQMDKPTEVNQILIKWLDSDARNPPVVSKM
Protocol: Nterm-Phos activity was measured in Bis-Tris HCl buffer (25 mM PH 7.0) containing 0.1 mg/mL of Fraction V BSA and 1 mM of MgCl2 (buffer A) at 30° C. […] APHP activity was measured as described using 7 as substrate (Newman et al., Proc. Natl. Acad. Sci. USA. 100, 1558-1563 (2003)). Compounds 34-37 were incubated separately with the enzyme for a given time, and then the reaction was stopped by the addition of 100 μL of methanol. The reaction products for compounds 34-37 were extracted with 500 μL of ethyl acetate. The quantification of the alcohol products was performed by LC/MS analysis of 2 μL of the organic phase. The Cterm-EH activity was measured as described previously in buffer A, using either racemic 4-nitrophenyl-trans-2,3-epoxy-3-phenylpropyl carbonate (Dietze et al., Anal. Biochem. 216, 176-187 (1994)) or racemic [^3H]-trans-1,3-diphenylpropene oxide as substrate (Borhan et al., Anal. Biochem. 231, 188-200 (1995)). This latter substrate was also used to measure the activity of the cress sEH and the truncated human sEH.

Human Cterm-EH = target: T2, Human Cterm-EH (Homo sapiens, UniProt P34913); test: Inhibition of Cterm-EH activity by lipid-phosphates, fluorescent assay
T2 construct: use of a truncated enzyme from crude extract versus purified full-length human sEH; made in house; host or cells: baculovirus expression system (insect cells)
T2 sequence (P34913 1-555): T1 sequence (P34913 1-555)

[2] = target: T3, Human sEH Cterm-EH activity (Homo sapiens, UniProt P34913); test: Cterm-EH inhibition IC50 with 4-nitrophenyl-trans-2,3-epoxy-3-phenylpropyl carbonate
T3 construct: use of a truncated enzyme from crude extract versus purified full-length human sEH; made in house; host or cells: baculovirus expression system (insect cells)
T3 sequence (P34913 1-555): T1 sequence (P34913 1-555)

Nterm-phos [3] = target: T1, Nterm-phos; test: Kinetic parameters of Nterm-phos for poly-isoprenyl phosphates (LC/MS of alcohol products)
Protocol: Nterm-Phos activity was measured in Bis-Tris HCl buffer (25 mM PH 7.0) containing 0.1 mg/mL of Fraction V BSA and 1 mM of MgCl2 (buffer A) at 30° C. […] APHP activity was measured as described using 7 as substrate (Newman et al., Proc. Natl. Acad. Sci. […] The quantification of the alcohol products was performed by LC/MS analysis of 2 μL of the organic phase. […] This latter substrate was also used to measure the activity of the cress sEH and the truncated human sEH. […] The Shimadzu […] HPLC system (Shimadzu Scientific Instruments, Columbia, Md.) was set at a flow rate of 0.2 mL/min, and a 2.1×30 mm XTerraTM MS C18 3.5 μm column (Waters, Milford, Mass.) held at 20° C. The samples were kept at 10° C. in the auto-sampler. […] A solvent system consisting of water with 0.1% formic acid (solvent A) and acetonitrile with 0.1% formic acid (solvent B) was used and set at a flow rate of 0.25 mL/min. […] Pyrophosphate was analyzed by direct injection of 5 μL sample into the mass spectrometer at 0.05 mL/min flow rate of 50% A and 50% B. Analytes were detected by electrospray ionization-tandem quadrupole mass spectrometry in multiple reaction monitoring mode (MRM) using a Quattro Premier tandem quadrupole mass spectrometer (Micromass, Manchester, UK). Nitrogen gas flow rates were fixed with a cone gas flow of 25 L/h and a desolvation gas flow of 700 L/h. Electrospray ionization of geraniol, farnesol and geranylgeraniol was performed in positive mode with a capillary voltage fixed at 3.20 kV and a cone voltage fixed at 25 V using a source temperature of 125° C. and a desolvation temperature of 350° C. Capillary voltage and cone voltage were optimized in an infusion experiment. […] However, intense [M+H-18]^+ ions were produced in the source due to water loss. Therefore, these ions were selected as precursor ions to set MRM acquisition mode. Monitored transitions were 137>95 m/z for geraniol, 205>121 m/z for farnesol, and 273>149 m/z for geranylgeraniol at collision voltage of 15 V for all analytes. Argon was used as collision gas (2.2×10^-3 Torr). […] Chromatogram integration and analyte quantification was performed with QuantLynx module of the MassLynx 4.0 software (Micromass, Manchester, UK).

[4] = substrate 50 μM, 5 min preincubation, 30° C., read-out: IC50

- Spec. Act. (Nterm-phos [1]): 30 ± 15 nmol/min/mg
- Inhibition (%) (Human Cterm-EH; [LP] 14 μM): 86%
SMILES: CC(C)=CCC/C(C)=C/CC/C(C)=C/C1C(COP(=O)(O)OP(=O)(O)O)C1(C)CC/C=C(\C)CCC=C(C)C (stereo in doubt) [Pre-squalene diphosphate (PSDP), Pre-squalene diphosphate]

- Spec. Act. (Nterm-phos [1]): 54 ± 22 nmol/min/mg
- Inhibition (%) (Human Cterm-EH; [LP] 14 μM): 30%
SMILES: CC(C)=CCC/C(C)=C/CC/C(C)=C/C1C(COP(=O)(O)O)C1(C)CC/C=C(\C)CCC=C(C)C (stereo in doubt) [Pre-squalene monophosphate (PSMP), Pre-squalene monophosphate]

- Spec. Act. (Nterm-phos [1]): <0.3 nmol/min/mg
SMILES: CCCCCCCC/C=C\CCCCCCCC(=O)OCC(COP(=O)(O)O)OC(=O)CCCCCCC/C=C\CCCCCCCC (stereo not drawn) [1,2-Dioleoyl-glycerol-3-phosphate (DOGP), 1,2-Dioleoyl-glycerol-3-phosphate]

- IC50 [2, 4]: > 100 µM
SMILES: CCCCCCCCCCCCCCCCC(C(=O)O)S(=O)(=O)O (stereo not drawn) [Compound 10, α-Sulfostearic acid]

- IC50 [2, 4]: > 100 µM
SMILES: CCCCCCCCCCCCS(=O)(=O)O [Compound 12, Sodium dodecyl-sulfonate]

SMILES: O=[N+]([O-])c1ccc(OS(=O)(=O)O)cc1 [Compound 13, 4-Nitrophenyl sulfate]
- IC50 [2, 4]: > 100 µM

SMILES: C[C@H](CCC(=O)NCCS(=O)(=O)O)[C@H]1CC[C@H]2[C@@H]3CC[C@@H]4C[C@H](OS(=O)(=O)O)CC[C@]4(C)[C@H]3CC[C@]12C [Compound 14, Taurolithocholic acid 3-sulfate]
- IC50 ([2]; read-out: IC50): 90 ± 5 µM

SMILES: C[C@H](CCC(=O)NCCS(=O)(=O)O)[C@H]1CC[C@H]2[C@@H]3[C@H](O)C[C@@H]4C[C@H](O)CC[C@]4(C)[C@H]3C[C@H](O)[C@]12C [Compound 15, Taurocholic acid]
- IC50 [2]: > 100 µM

- IC50 [2, 4]: > 100 µM
SMILES: C[C@]12CC[C@@H]3c4ccc(OS(=O)(=O)O)cc4CC[C@H]3[C@@H]1CCC2=O [Compound 16, Estrone-3-sulfate]

- IC50 [2, 4]: > 100 µM
SMILES: O=C[C@H](O)[C@@H](O)[C@@H](O)[C@H](O)COS(=O)(=O)O [Compound 17, D-Galactose-6-sulfate]

- IC50 [2, 4]: > 100 µM
SMILES: O=C1O[C@H]([C@@H](O)CO)C(O)=C1OS(=O)(=O)O [Compound 18, L-Ascorbic acid 2-sulfate dipotassium salt]

- IC50 [2, 4]: > 100 µM
SMILES: CC(=O)N[C@H]1C(O)O[C@H](CO)[C@H](OS(=O)(=O)O)[C@@H]1O (stereo partly drawn) [Compound 19, N-Acetyl-D-galactosamine 4-sulfate]

- IC50 [2, 4]: > 100 µM
SMILES: CC(C)OP(=O)(CP(=O)(OC(C)C)OC(C)C)OC(C)C [Compound 20, Tetra-isopropyl-methylene diphosphonate]

SMILES: CCOP(=O)(OCC)C(=O)c1ccccc1 [Compound 22, Diethyl-benzoylphosphonate]
- IC50 [2]: > 100 µM

SMILES: CCOP(=O)(C/C=C/c1ccccc1)OCC [Compound 24, Diethyl trans-cinnamyl-phosphonate]
- IC50 [2]: > 100 µM

SMILES: CCOP(=O)(Cc1ccc(C)cc1)OCC [Compound 25, Diethyl 4-methylbenzyl-phosphonate]
- IC50 [2]: > 100 µM

- IC50 [2, 4]: 92 ± 3 µM
SMILES: CCCCCCCCOP(=O)(OCCCCCCCC)c1ccccc1 [Compound 27, Dioctyl-phenyl-phosphonate]

- IC50 [2, 4]: > 100 µM
SMILES: O=P(O)(OCc1ccccc1)OCc1ccccc1 [Compound 28, Di-benzyl-phosphate]

SMILES: CCCCCC(=O)CP(=O)(OC)OC [Compound 29, Dimethyl (2-oxoheptyl)-phosphonate]
- IC50 [2]: > 100 µM

SMILES: CCOP(=O)(OCC)C(O)C(F)(F)F (stereo not drawn) [Compound 30, Diethyl (2,2,2-trifluoro-1-hydroxyethyl)-phosphonate]
- IC50 [2]: > 100 µM

SMILES: CCOP(=O)(CSCC)OCC [Compound 31, Diethyl (ethyltiomethyl)phosphonate]
- IC50 [2]: > 100 µM

- IC50 [2, 4]: > 100 µM
SMILES: CCCCCCCCCCCCP(=O)(O)O [Compound 33, Dodecyl phosphonic acid]

SMILES: CC(C)=CCC/C(C)=C/COP(=O)(O)OP(=O)(O)O [Compound 34, Geranyl-pyrophosphate]
- Km (Nterm-phos [3]; linear curve, above the highest concentration tested): > 5 µM

SMILES: CC(C)=CCC/C(C)=C/CC/C(C)=C/COP(=O)(O)OP(=O)(O)O [Compound 35, Farnesyl-pyrophosphate]
- Spec. Act. (Nterm-phos [1]): 32 ± 7 nmol/min/mg
- Inhibition (%) (Human Cterm-EH; [LP] 10 μM): 60%
- Hill coefficient (Nterm-phos [3]; compound as substrate): 1.0 ± 0.1
- Km (Nterm-phos [3]; compound as substrate): 10.1 ± 1.1 µM
- VM (Nterm-phos [3]; compound as substrate): 12.5 ± 1.0 nmol/min/mg

- Inhibition (%) (Human Cterm-EH; [LP] 10 μM): 45%
- Hill coefficient (Nterm-phos [3]; compound as substrate): 1.0 ± 0.2
- Km (Nterm-phos [3]; compound as substrate): 3.4 ± 1.6 µM
- VM (Nterm-phos [3]; compound as substrate): 4.7 ± 1.1 nmol/min/mg
SMILES: CC(C)=CCC/C(C)=C/CC/C(C)=C/CC/C(C)=C/COP(=O)(O)OP(=O)(O)O [Compound 36, Geranylgeranyl-pyrophosphate]

- hydrolyzed faster than the corresponding pyrophosphate derivative (Nterm-phos [3]): approximately 50 fold
- Hill coefficient (Nterm-phos [3]; compound as substrate): 1.0 ± 0.1
- Km (Nterm-phos [3]; compound as substrate): 5.7 ± 0.4 µM
- VM (Nterm-phos [3]; compound as substrate): 303 ± 19 nmol/min/mg
SMILES: CC(C)=CCC/C(C)=C\CC/C(C)=C\COP(=O)(O)O [Compound 37, Farnesyl monophosphate]

- Spec. Act. (Nterm-phos [1]): <0.3 nmol/min/mg
- Inhibition (%) (Human Cterm-EH; [LP] 50 μM): 31%
SMILES: CCCCCCCCCCCCCC=CC(O)C(COP(=O)(O)O)NC(=O)CCCCCCC (stereo not drawn) [N-Octyl-ceramide-1-phosphate (OCP), N-Octyl-ceramide-1-phosphate]

- Spec. Act. (Nterm-phos [1]): 1.1 ± 0.1 nmol/min/mg
- inhibition at 40 µM (Human Cterm-EH; [LP] 40 μM): 2%
SMILES: CCCCCCCCCCCCC/C=C/[C@@H](O)[C@@H](N)COP(=O)(O)O [Sphingosine-1-phosphate (S1P), Sphingosine-1-phosphate]
